Measurements: publication PMC11695783 (Frontiers in Pharmacology, 2024)
In brackets after ≈: the same amount, converted by molar mass. Like-named read-outs stand apart in the source and are kept apart here.

How the values were obtained:
[1] = test system: Mycoplasma pneumoniae strain M129 (ATCC 29342); assay: Susceptibility assay (broth microdilution MIC, MBC); assay type: cell-based
Procedure: (§1) Mycoplasma pneumoniae strain M129 (ATCC 29342) was obtained from American Type Culture Collection (Manassas, VA, United States) and cultured at 37°C in the presence of 5% CO2 in the modified SP-4 liquid medium (pH 7.4) containing 2.1% (w/v) CM1166 mycoplasma broth base medium (Oxoid, Hants, United Kingdom), 20% (v/v) fetal bovine serum (FBS, Bioexplorer, CO, United States), 0.4% yeast extract (Oxoid), 0.55% (w/v) CMRL 1066 w/L-glutamine culture media powder (MyBioSource, San Diego, CA, United States), 1% D-glucose (Macklin) and 0.004% phenol red (Macklin). […] The solid medium is based on the above formula with the addition of 1% agar, and the characteristic fried egg-like colonies were used for experiments following incubation for 7 d on plates.
The broth microdilution MIC procedure was performed according to standardized methods for microdilution susceptibility testing of mycoplasma species ([Waites et al., 2012]). […] The concentration of organisms should be determined to approximately 10^6 CFU/mL prior to inoculation into 96-well plates. Due to the action of phenol red, the acidic metabolites of microbial growth can turn the medium yellow. […] The MBC assays were performed based on MICs following endpoint reading and the liquid in the high-concentration wells was removed for bacterial counting.

[2] = test system: Mycoplasma pneumoniae strain M129 (ATCC 29342); assay: Time-kill curves; assay type: cell-based; parameters: M. pneumoniae count in time-kill curve: unit not given here
Procedure: as §1
The tubes were incubated at 37°C in 5% CO2 for 72 h, and 200 µL of the culture was removed every 12 h for 10-fold serial dilutions. The diluted cultures were plated on plates for further culture and counted after 7 d. The experiment was repeated three times.

[3] = broilers, cited from earlier work
M. pneumoniae = test system: M. pneumoniae; parameters: method as in Eraikhuemen et al., 2021; conditions: against M. pneumoniae; ref Eraikhuemen et al., 2021; cited from earlier work
mice = conditions: oral acute toxicity; ref Fan et al., 2022; Hu et al.; Zhang et al., 2015; Zuo et al., 2020; cited from earlier work
[4] = parameters: method as in Wang Y. et al., 2024; Zuo et al., 2020; conditions: chickens, ref Wang Y. et al., 2024, Zuo et al., 2020, cited from earlier work
[5] = 2020, cited from earlier work; for AUC0-∞: ref Zuo et al.; for bioavailability: mice, ref Wang Y. et al., 2024, Zuo et al.

For CC[C@H]1OC(=O)[C@H](C)[C@@H](O[C@H]2C[C@@](C)(OC)[C@@H](O)[C@H](C)O2)[C@H](C)[C@@H](O[C@@H]2O[C@H](C)C[C@H](N(C)C)[C@H]2O)[C@](C)(O)C[C@@H](C)C(=O)[C@H](C)[C@@H](O)[C@]1(C)O [erythromycin], the MIC ([1]; M. pneumoniae strain M129, ≈96 h, read-out: MIC) was 0.016 µg/mL (≈ 0.0218 µM), the MBC ([1]; M. pneumoniae strain M129, read-out: MBC) was 0.032 µg/mL (≈ 0.0436 µM) and the “M. pneumoniae count in time-kill curve” value ([2]; 1×MIC, time 0) was 7.138. For the same compound, the “M. pneumoniae count in time-kill curve” value ([2]; 1×MIC, time 12) was 6.145, the “M. pneumoniae count in time-kill curve” value ([2]; 1×MIC, time 24) was 6.32 and the “M. pneumoniae count in time-kill curve” value ([2]; 1×MIC, time 36) was 5.109. The “M. pneumoniae count in time-kill curve” value ([2]; 1×MIC, time 48) was 4.8395, the “M. pneumoniae count in time-kill curve” value ([2]; 1×MIC, time 60) was 5.816 and the “M. pneumoniae count in time-kill curve” value ([2]; 1×MIC, time 72) was 6.113. For the same compound, the “decrease of bacterial load” value ([2]; 2 × MIC, 72 h exposure) was 3.61 log10 CFU/mL, the “M. pneumoniae count in time-kill curve” value ([2]; 2×MIC, time 0) was 7.138 and the “M. pneumoniae count in time-kill curve” value ([2]; 2×MIC, time 12) was 6.411. The “M. pneumoniae count in time-kill curve” value ([2]; 2×MIC, time 24) was 6.275, the “M. pneumoniae count in time-kill curve” value ([2]; 2×MIC, time 36) was 4.753 and the “M. pneumoniae count in time-kill curve” value ([2]; 2×MIC, time 48) was 4.288. The “M. pneumoniae count in time-kill curve” value ([2]; 2×MIC, time 60) was 4.145, the “M. pneumoniae count in time-kill curve” value ([2]; 2×MIC, time 72) was 3.53 and the “M. pneumoniae count in time-kill curve” value ([2]; 4×MIC, time 0) was 7.138. For the same compound, the “M. pneumoniae count in time-kill curve” value ([2]; 4×MIC, time 12) was 6.078, the “M. pneumoniae count in time-kill curve” value ([2]; 4×MIC, time 24) was 6.148 and the “M. pneumoniae count in time-kill curve” value ([2]; 4×MIC, time 36) was 4.203. For the same compound, the “M. pneumoniae count in time-kill curve” value ([2]; 4×MIC, time 48) was 3.916, the “M. pneumoniae count in time-kill curve” value ([2]; 4×MIC, time 60) was 3.913 and the “M. pneumoniae count in time-kill curve” value ([2]; 4×MIC, time 72) was 3.415. The “M. pneumoniae count in time-kill curve” value ([2]; 8×MIC, time 0) was 7.138, the “M. pneumoniae count in time-kill curve” value ([2]; 8×MIC, time 12) was 6.379 and the “M. pneumoniae count in time-kill curve” value ([2]; 8×MIC, time 24) was 6.145. The “M. pneumoniae count in time-kill curve” value ([2]; 8×MIC, time 36) was 4.163, the “M. pneumoniae count in time-kill curve” value ([2]; 8×MIC, time 48) was 3.977 and the “M. pneumoniae count in time-kill curve” value ([2]; 8×MIC, time 60) was 3.326. For the same compound, the “M. pneumoniae count in time-kill curve” value ([2]; 8×MIC, time 72) was 3.283, the “M. pneumoniae count in time-kill curve” value ([2]; 16×MIC, time 0) was 7.138 and the “M. pneumoniae count in time-kill curve” value ([2]; 16×MIC, time 12) was 6.732. For the same compound, the “M. pneumoniae count in time-kill curve” value ([2]; 16×MIC, time 24) was 6.1338, the “M. pneumoniae count in time-kill curve” value ([2]; 16×MIC, time 36) was 3.93 and the “M. pneumoniae count in time-kill curve” value ([2]; 16×MIC, time 48) was 3.332. For the same compound, the “M. pneumoniae count in time-kill curve” value ([2]; 16×MIC, time 60) was 3.123, the “M. pneumoniae count in time-kill curve” value ([2]; 16×MIC, time 72) was 3.438 and the “M. pneumoniae count in time-kill curve” value ([2]; 32×MIC, time 0) was 7.138. For the same compound, the “M. pneumoniae count in time-kill curve” value ([2]; 32×MIC, time 12) was 6.133, the “M. pneumoniae count in time-kill curve” value ([2]; 32×MIC, time 24) was 5.307 and the “M. pneumoniae count in time-kill curve” value ([2]; 32×MIC, time 36) was 3.588. The “M. pneumoniae count in time-kill curve” value ([2]; 32×MIC, time 48) was 3.619, the “M. pneumoniae count in time-kill curve” value ([2]; 32×MIC, time 60) was 3.2228 and the “M. pneumoniae count in time-kill curve” value ([2]; 32×MIC, time 72) was 3.181. The “M. pneumoniae count in time-kill curve” value ([2]; 64×MIC, time 0) was 7.138, the “M. pneumoniae count in time-kill curve” value ([2]; 64×MIC, time 12) was 6.741 and the “M. pneumoniae count in time-kill curve” value ([2]; 64×MIC, time 24) was 5.886. For the same compound, the “M. pneumoniae count in time-kill curve” value ([2]; 64×MIC, time 36) was 3.638, the “M. pneumoniae count in time-kill curve” value ([2]; 64×MIC, time 48) was 3.377 and the “M. pneumoniae count in time-kill curve” value ([2]; 64×MIC, time 60) was 2.841. The “M. pneumoniae count in time-kill curve” value ([2]; 64×MIC, time 72) was 2.68 and the “concentration at which bactericidal effect was achieved” value ([2]; static time-kill, 72 h) was 2 × MIC.

For C=C[C@]1(C)C[C@@H](OC(=O)CSC(C)(C)CNC(=O)[C@H](N)C(C)C)[C@]2(C)[C@H](C)CC[C@]3(CCC(=O)[C@H]32)[C@@H](C)[C@@H]1O [valnemulin], the bioavailability ([3]; IM, ref WANG et al., 2011) is listed as 88.81%.

In the case of C=C[C@]1(C)C[C@@H](OC(=O)CS[C@@H]2CC[C@@H](N)C[C@H]2O)[C@]2(C)[C@H](C)CC[C@]3(CCC(=O)[C@H]32)[C@@H](C)[C@@H]1O [lefamulin], the MIC90 (M. pneumoniae) is listed as 0.006 µg/mL (≈ 0.0118 µM).

In the case of C=C[C@]1(C)C[C@@H](OC(=O)CSc2nnc(N)s2)[C@]2(C)[C@H](C)CC[C@]3(CCC(=O)[C@H]32)[C@@H](C)[C@@H]1O [ATTM, 14-o-[(2-amino-1,3,4-thiadiazol-5-yl)thioacetyl] mutilin], the bioavailability ([3]; IM, ref Shang et al., 2018, Xianhui, 2010) is given as 75.29%, the bioavailability ([3]; PO, ref Shang et al., 2018, Xianhui, 2010) is given as 72.03% and the LD50 (mice) is given as 2,304.4 mg/kg.

In the case of C=C[C@]1(C)C[C@@H](OC(=O)CSc2ccccc2N)[C@]2(C)[C@H](C)CC[C@]3(CCC(=O)[C@H]32)[C@@H](C)[C@@H]1O [amphenmulin, 22-(2-amino-phenylsulfanyl)-22-deoxypleuromutilin], the LD50 (mice) is given as > 5,000 mg/kg, the bioavailability ([4]; IM) is given as 52.14% and the bioavailability ([4]; PO) is given as 5.88%. For the same compound, the “AUC0-∞” value ([5]; intraperitoneal, at the same dose) was 2520 ng·h/mL, the “AUC0-∞” value ([5]; intravenous, at the same dose as compound 16C) was 12230 ng·h/mL and the bioavailability ([5]; IP) was 20.71%. The bioavailability ([5]; PO) was 13.65% and the “AUC0-∞” value ([5]; oral, at the same dose) was 1670 ng·h/mL.
